In patent US20250179465A1, “SITE-SPECIFIC ENCODING OF FLUORINATED PHENYLALANINE RESIDUES IN BACTERIAL AND MAMMALIAN CELLS” (University of Iowa Research Foundation, priority 2022, published 2025):

What was measured:
[1] = system: F508TAG-CFTR; assay: Western blot of full-length F508TAG-CFTR expression via PheX-D6; format: cell-based, human; settings: F508TAG CFTR with PheX-D6, HEK 293T, 2 mM ncAA, result in words
Protocol: (§1) pCMV-CFTR was a gift from Paul McCray (University of Iowa). WT CFTR-TAA (the existing TAG stop codon changed to TAA), F508 TAG CFTR (TAG amber codon introduced at F508 in the above WT construct), as well as WT and F1486TAG hNav 1.5_strep_HIS_strep were produced using standard methods and sequenced through the open reading frame. For expression of WT CFTR, 10 cm dishes of HEK 293T cells were transfected with 1.5 μg WT CFTR-TAA and 0.25 μg WT GFP. For expression of WT hNav 1.5, 10 cm dishes of HEK 293T cells were transfected with 1.5 μg of WT hNav 1.5_strep_HIS_strep and 0.25 μg WT GFP. For encoding of 2,3,6F Phe, 10 cm dishes of HEK 293T cells were transfected from master mixes of DNA such that each dish received 3.5 μg of PheX-D6 and 0.25 μg of sfSFGFP_N150TAG. Depending on condition, 2 μg of F508TAG-CFTR or 1.5 μg of F1486TAG-Nav 1.5-SHS were added. Media was changed twice (˜16 hr and ˜32 hr post transfection), and cells were harvested ˜44 hrs post transfection and flash frozen in aliquots. Cell pellets were resuspended in RIPA (Sigma Aldrich) plus Roche protease inhibitors. 60 μg of protein from cleared, unconcentrated lysate (or a dilution) was loaded on 4-20% SDS gels. […]

[2] = system: F1486TAG-hNav 1.5; assay: Western blot of full-length F1486TAG-hNav 1.5 expression via PheX-D6; format: cell-based, human; settings: F1486TAG hNav 1.5 with PheX-D6, HEK 293T, 2 mM ncAA, result in words
Protocol: as §1

[3] = target: T1, PheX-B5 (Methanosarcina barkeri, UniProt Q6WRH6, C313A/N311G); assay: ESI-MS encoding fidelity of sfGFP_N150TAG expressed in HEK 293T cells with PheX-B5; format: cell-based, human; set-up: Phex-B5 HEK; expressed in transfected cells; host or cells: HEK 293T; settings: for fidelity (encoding): PheX-B5, HEK 293T cells, sfGFP_N150TAG, 2 mM ncAA, ESI-MS, estimated
Protocol: (§2) HEK 293T cells were expanded in […]. […] Overall, 7-40 dishes were transfected with master mixes such that each dish received 3.5 μg of pACBAC1, 1.5 μg sfGFP_N150TAG, and 15 μL of PolyJET according to manufacturer's instructions. Media was changed before transfection and approximately 18 hrs after transfection. Cells were harvested approximately 36 hours after transfection. To harvest, each dish was washed twice with DPBS. Cells were harvested via scraping in ice-cold DPBS plus Roche protease inhibitors, on ice, pelleted by centrifugation, and flash frozen in liquid nitrogen. Cells were lysed in hypotonic lysis buffer (10 mM Tris/HCl pH 8, Roche protease inhibitors, 0.1% Triton X 100 Sigma) via dounce homogenization on ice. Cell debris and nuclei were cleared via centrifugation. Clarified lysate was diluted 1:2 in Wash buffer (25 mM Tris/HCl pH 8, 20 mM Imidazole, 150 mM NaCl) and applied to pre-equilibrated Ni-NTA resin (Qiagen). Column was washed in at least 30 volumes of wash buffer, then protein was eluted in elution buffer (25 mM Tris/HCl pH 8, 250 mM Imidazole, 150 mM NaCl). Elution was exchanged into 100 mM TEAB, prepared via 1:10 dilution of 1 M Stock (thermofisher) in ultrapure water. Finally, protein was concentrated to ˜0.5 mg/ml, flash frozen, and submitted to Novatia Inc for ESI mass spec of the intact protein. […] The spectra was analyzed in-house by Novatia (Promass software) to yield relative intensities of the dominant mass and any other apparent peaks. […] To be conservative, all other peaks were considered unexpected mass, even though they may not represent actual misincorporation.
Target sequence in this assay (Q6WRH6 other isoform, or with tags, fused parts or gaps N311G/C313A): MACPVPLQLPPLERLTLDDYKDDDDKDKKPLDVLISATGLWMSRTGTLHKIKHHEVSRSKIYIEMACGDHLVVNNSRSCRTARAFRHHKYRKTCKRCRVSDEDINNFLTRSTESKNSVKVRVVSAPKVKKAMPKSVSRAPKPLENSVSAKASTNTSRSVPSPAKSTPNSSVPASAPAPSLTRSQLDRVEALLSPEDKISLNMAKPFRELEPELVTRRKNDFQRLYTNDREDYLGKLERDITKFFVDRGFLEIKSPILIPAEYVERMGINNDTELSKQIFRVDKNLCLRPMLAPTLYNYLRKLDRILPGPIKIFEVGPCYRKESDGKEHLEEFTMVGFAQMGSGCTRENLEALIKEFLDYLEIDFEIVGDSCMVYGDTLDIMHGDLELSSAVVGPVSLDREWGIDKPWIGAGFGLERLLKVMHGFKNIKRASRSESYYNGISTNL

[4] = target: T1, PheX-B5; format: cell-based; set-up: Phex-B5 ECOLI; expressed in transfected cells; host or cells: E. coli; settings: PheX-B5, E. coli, sfGFP N150TAG, 1 mM ncAA, intact protein ESI-MS
Protocol: (§3) Previously existing E. coli containing sfGFP150TAG and a given Rs in non-inducing media were used to inoculate 5 mL cultures of non-inducing media containing 50 μg/mL Kan and 25 μg/mL Tet. Cultures were incubated for 20 hours at 37° C., shaking at 250 rpm. After adequate growth, 500 μL of the 5 mL cultures were used to inoculate 50 mL cultures of auto-inducing media containing 1 mM ncAA. Cultures were incubated for 24 hours (37° C., 250 rpm), after which cultures were then spun down at 5000 rcf for 10 minutes and resuspended in 10 mL of a Tris buffer solution containing 100 mM Tris, 0.5 M NaCl, and 5 mM imidazole. Cells were lysed by micro-fluidization at 18,000 psi and centrifuged at […] for 30 minutes. sfGFP proteins in cell lysate were bound to TALON Metal Affinity Resin (bed volume of 100 μL) at 4° C. for 1 hour. Lysate and bound resin were transferred to a gravity-flow column and the resin was washed with 30 bed volumes of buffer. Protein was eluted using Tris buffer solution previously described supplemented with 200 mM imidazole. Protein concentration was assessed by comparing sfGFP fluorescence to a standard curve and submitted for ESI-MS.
(§4) The spectra were analyzed in-house by Novatia (Promass) to yield relative intensities at given masses. […] For the purpose of estimating encoding fidelity, these were considered part of the expected mass, and all other signals were considered non-expected mass.
Target sequence in this assay (Q6WRH6 whole entry N311G/C313A): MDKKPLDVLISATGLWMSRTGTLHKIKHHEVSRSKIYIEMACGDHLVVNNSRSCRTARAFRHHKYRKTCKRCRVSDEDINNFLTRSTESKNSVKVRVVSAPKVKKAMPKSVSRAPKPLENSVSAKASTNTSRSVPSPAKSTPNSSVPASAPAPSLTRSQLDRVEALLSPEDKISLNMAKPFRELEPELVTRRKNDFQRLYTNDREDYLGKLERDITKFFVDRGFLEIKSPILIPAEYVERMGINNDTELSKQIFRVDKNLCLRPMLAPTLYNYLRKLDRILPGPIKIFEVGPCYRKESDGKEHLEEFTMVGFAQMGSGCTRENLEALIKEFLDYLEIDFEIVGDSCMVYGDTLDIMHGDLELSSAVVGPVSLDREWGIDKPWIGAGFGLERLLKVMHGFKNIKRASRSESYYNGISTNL

[5] = target: T2, PheX-D6 (Methanosarcina barkeri, UniProt Q6WRH6, C313M/N311A/V366G/W382T); assay: ESI-MS encoding fidelity of sfGFP_N150TAG expressed in E. coli with PheX-D6; format: cell-based; set-up: Phex-D6 ECOLI; expressed in transfected cells; host or cells: E. coli; settings: sfGFP N150TAG, 1 mM ncAA, intact protein ESI-MS
Protocol: as §3, §4
Target sequence in this assay (Q6WRH6 whole entry N311A/C313M/V366G/W382T): as the sequence (Q6WRH6 whole entry N311G/C313A) above, with G311A, A313M, V366G, W382T counted along it

[6] = target: T2, PheX-D6; assay: ESI-MS encoding fidelity of sfGFP_N150TAG expressed in HEK 293T cells with PheX-D6; format: cell-based, human; set-up: Phex-D6 HEK; expressed in transfected cells; host or cells: HEK 293T; settings: PheX-D6, HEK 293T cells, 2 mM ncAA, estimated
Protocol: as §2
Target sequence in this assay (Q6WRH6 other isoform, or with tags, fused parts or gaps N311A/C313M/V366G/W382T): as the sequence (Q6WRH6 other isoform, or with tags, fused parts or gaps N311G/C313A) above, with G336A, A338M, V391G, W407T counted along it

[7] = system: sfGFP-N150TAG; assay: Permissivity screen (E. coli), sfGFP-N150TAG rescue fluorescence; format: cell-based; settings: result in words; for encoding level in E. coli by the synthetases tested: 1 mM ncAA, 24 hours
Protocol: Electrocompetent DH10B cells containing the pALS reporter plasmid were transformed with isolated pBK plasmids containing the synthetases. Cultures of 5 mL were inoculated with single colonies of each synthetase in non-inducing media with 50 μg/mL kanamycin and 25 μg/mL tetracycline and grown for 16 hours. Noncanonical amino acid stocks were made at 100× their final concentration. 96-well blocks were prepared with 500 μL of auto-induction media containing antibiotics, and ncAAs with a final working concentration of 1 mM were added to their respective wells. Each well was then inoculated with a corresponding synthetase, yielding a final 96-well block where each synthetase was tested against each amino acid of interest. Cultures were grown in duplicate and fluorescence measurements were taken at 24 hours.

[8] = system: sfGFP_N150TAG; assay: Permissivity screen (mammalian), lysate GFP fluorescence; format: cell-based, human; settings: HEKT cells, PheX-D6, result in words
Protocol: HEKT cells were seeded in 60 mm dishes so that they would be approximately 60-80% confluent the next day. We transfected the cells using 1.75 μg of the PacBac1-based synthetase plasmid (PheX-D6 or PheX-B5) and 0.75 μg of sfGFP_N150TAG per dish. Polyjet was used (7.5 μl per dish, 2.5 mL media volume). Media was exchanged to contain ncAAs at a given concentration before transfection and approximately 16 hours after transfection. Amino acids were solubilized either in NaOH for those synthesized as free acids (penta-flouro, 2,3,6 trifluoro, 3,4,5 trifluoro, 2,5 difluoro, 2,4 difluoro, 2 mono) or in HCl for those synthesized as HCl salts (2,3,5,6 tetrafluoro, 2,3,4,5 tetrafluoro, 2,6 difluoro). Cells were imaged and harvested approximately 24 hrs after transfection. Images were taken with 20× objective using a Leica DFC9000GT camera with 700 ms exposure, without binning. Excitation was through an X-Cite 120 LED (Lumen Dynamics) set to 100% intensity. For bright field images, light was adjusted manually. […] After cell debris and nuclei were cleared via centrifugation, GFP fluorescence was read from supernatants in 96 well plates; for each concentration of amino acid, at least 6 readings were made from at least 2 transfections. The level of fluorescence from lysates from untransfected cells averaged 21.7±2.1 RFU. […]

## N[C@@H](Cc1c(F)ccc(F)c1F)C(=O)O [2,3,6-fluoro Phe, 2,3,6 tri-fluoro Phenylalanine]
[1]
  expression of full-length channel (western blot): dependent on addition of 2,3,6F Phe
[2]
  expression of full-length channel (western blot): dependent on addition of 2,3,6F Phe
[3]
  fidelity (encoding): 100%
[4]
  encoding fidelity: 88.1%
[5]
  encoding fidelity: 96.7%
[6]
  fidelity (encoding): 98.5%

## N[C@@H](Cc1c(F)cccc1F)C(=O)O [2,6-fluoro Phe, 2,6 di-fluoro Phenylalanine]
[3]
  fidelity (encoding): 100%
[4]
  encoding fidelity: 81.8%
[5]
  encoding fidelity: 95.0%
[6]
  fidelity (encoding): 97.6%

## N[C@@H](Cc1ccccc1F)C(=O)O [2-fluoro Phe, 2-mono fluoro Phenylalanine]
[3]; HEKT cells, sfGFP-N150TAG with PheX-B5, result in words
  site-specificity of encoding (ESI-MS): widespread encoding of 2-mono fluoro Phe at Phe-codons
[4]
  encoding fidelity: 95.6%
[7]; E. coli, D6 synthetase
  expression in the screen: low expression in the screen

## N[C@@H](Cc1c(F)c(F)cc(F)c1F)C(=O)O [2,3,5,6-fluoro Phe, 2,3,5,6 tetra-fluoro Phenylalanine]
[3]
  fidelity (encoding): 100%
[4]
  encoding fidelity: 97.9%
[5]
  encoding fidelity: 98.7%
[6]
  fidelity (encoding): 98.2%
[7]
  encoding level in E. coli by the synthetases tested: comparable levels to para-methyl tetra-fluoro Phe

## N[C@@H](Cc1cc(F)ccc1F)C(=O)O [2,5-fluoro phenylalanine, 2,5-difluoro-Phe]
[3]
  fidelity (encoding): 91.3%
[6]
  fidelity (encoding): 95.6%

## N[C@@H](Cc1cc(F)c(F)c(F)c1F)C(=O)O [2,3,4,5-fluoro phenylalanine, 2,3,4,5 tetra-fluoro Phenylalanine]
[3]
  fidelity (encoding): 97.4%
[6]
  fidelity (encoding): 100%

## N[C@@H](Cc1c(F)c(F)c(F)c(F)c1F)C(=O)O [Penta-fluoro Phe, 2,3,4,5,6 penta-fluoro Phenylalanine]
[3]
  fidelity (encoding): 96.2%
[4]
  encoding fidelity: 97.5%
[5]
  encoding fidelity: 98.2%
[6]
  fidelity (encoding): 97.5%
[7]
  encoding level in E. coli by the synthetases tested: comparable levels to para-methyl tetra-fluoro Phe
[8]
  useable ncAA concentration (dose-response): useable at sub-millimolar concentrations
